From patent publication US20150105252A1, “SUBSTITUTED PYRAZOLES AS HERBICIDES” (E I DU PONT DE NEMOURS AND COMPANY, priority 2013, published 2015)

Key:
[1] = tested on: wheat; assay: Test A preemergence; assay type: in vivo, Triticum aestivum; conditions: Preemergence, 1000 g ai/ha; 0 to 100 scale, 0 no effect, 100 complete control
In short: (§1)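 Growth medium: loam soil blended with sand. Preemergence treatment used a directed soil spray right after planting; postemergence treatment targeted seedlings at one to two leaves (2–10 cm height). Response was judged by eye relative to untreated plants about 10 days later on a 0–100 control scale.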

[2] = tested on: crabgrass, large; assay: Test A postemergence; assay type: in vivo, Digitaria sanguinalis; conditions: Postemergence, 1000 g ai/ha; visual rating after approx. 10 days, 0 to 100 scale (0 no effect, 100 complete control)
In short: as §1

[3] = tested on: velvetleaf; assay: Test A postemergence; assay type: in vivo, Abutilon theophrasti; conditions: Postemergence, 1000 g ai/ha; visual rating after approx. 10 days, 0 to 100 scale (0 no effect, 100 complete control)
From the text: (§2) Seeds of plant species selected from barnyardgrass (Echinochloa crus-galli), kochia (Kochia scoparia), common ragweed (Ambrosia elation), Italian ryegrass (Lolium multiflorum), crabgrass, large (large crabgrass, Digitaria sanguinalis), foxtail, giant (giant foxtail, Setaria faberii), morningglory (Ipomoea spp.), pigweed (redroot pigweed, Amaranthus retroflexus), velvetleaf (Abutilon theophrasti), wheat (Triticum aestivum), and corn (Zea mays) were planted into a blend of loam soil and sand and treated preemergence with a directed soil spray using test chemicals formulated in a non-phytotoxic solvent mixture which included a surfactant.
(§3) At the same time, plants selected from these crop and weed species and also blackgrass (Alopecurus myosuroides), and galium (catchweed bedstraw, Galium aparine) were planted in pots containing the same blend of loam soil and sand and treated with postemergence applications of test chemicals formulated in the same manner. Plants ranged in height from 2 to 10 cm and were in the one- to two-leaf stage for the postemergence treatment. Treated plants and untreated controls were maintained in a greenhouse for approximately 10 days, after which time all treated plants were compared to untreated controls and visually evaluated for injury. Plant response ratings, summarized in Table A, are based on a 0 to 100 scale where 0 is no effect and 100 is complete control. A dash (-) response means no test result.

[4] = tested on: foxtail, giant; assay: Test A preemergence; assay type: in vivo, Setaria faberii; conditions: Preemergence, 1000 g ai/ha; 0 to 100 scale, 0 no effect, 100 complete control
From the text: as §2, §3

[5] = tested on: pigweed; assay: Test A postemergence; assay type: in vivo, Amaranthus retroflexus; conditions: Postemergence, 1000 g ai/ha; visual rating after approx. 10 days, 0 to 100 scale (0 no effect, 100 complete control)
From the text: as §2, §3

[6] = tested on: corn; assay: Test A postemergence; assay type: in vivo, Zea mays; conditions: Postemergence, 1000 g ai/ha; visual rating after approx. 10 days, 0 to 100 scale (0 no effect, 100 complete control)
From the text: as §2, §3

[7] = tested on: morningglory; assay: Test A preemergence; assay type: in vivo, Ipomoea spp.; conditions: Preemergence, 1000 g ai/ha; 0 to 100 scale, 0 no effect, 100 complete control
In short: as §1

[8] = tested on: barnyardgrass; assay: Test A preemergence; assay type: in vivo, Echinochloa crus-galli; conditions: Preemergence, 1000 g ai/ha; 0 to 100 scale, 0 no effect, 100 complete control
In short: as §1

[9] = tested on: wheat; assay: Test A postemergence; assay type: in vivo, Triticum aestivum; conditions: Postemergence, 1000 g ai/ha; visual rating after approx. 10 days, 0 to 100 scale (0 no effect, 100 complete control)
In short: as §1

[10] = tested on: foxtail, giant; assay: Test A postemergence; assay type: in vivo, Setaria faberii; conditions: Postemergence, 1000 g ai/ha; visual rating after approx. 10 days, 0 to 100 scale (0 no effect, 100 complete control)
In short: as §1

[11] = tested on: crabgrass, large; assay: Test A preemergence; assay type: in vivo, Digitaria sanguinalis; conditions: Preemergence, 1000 g ai/ha; 0 to 100 scale, 0 no effect, 100 complete control
From the text: as §2, §3

[12] = tested on: corn; assay: Test A preemergence; assay type: in vivo, Zea mays; conditions: Preemergence, 1000 g ai/ha; 0 to 100 scale, 0 no effect, 100 complete control
From the text: as §2, §3

[13] = tested on: velvetleaf; assay: Test A preemergence; assay type: in vivo, Abutilon theophrasti; conditions: Preemergence, 1000 g ai/ha; 0 to 100 scale, 0 no effect, 100 complete control
In short: as §1

[14] = tested on: barnyardgrass; assay: Test A postemergence; assay type: in vivo, Echinochloa crus-galli; conditions: Postemergence, 1000 g ai/ha; visual rating after approx. 10 days, 0 to 100 scale (0 no effect, 100 complete control)
From the text: as §2, §3

[15] = tested on: pigweed; assay: Test A preemergence; assay type: in vivo, Amaranthus retroflexus; conditions: Preemergence, 1000 g ai/ha; 0 to 100 scale, 0 no effect, 100 complete control
From the text: as §2, §3

[16] = tested on: morningglory; assay: Test A postemergence; assay type: in vivo, Ipomoea spp.; conditions: Postemergence, 1000 g ai/ha; visual rating after approx. 10 days, 0 to 100 scale (0 no effect, 100 complete control)
From the text: as §2, §3

Structure (SMILES) | Wheat plant response rating [1] | Crabgrass, Large plant response rating [2] | Velvetleaf plant response rating [3] | Foxtail, Giant plant response rating [4] | Pigweed plant response rating [5] | Corn plant response rating [6] | Morningglory plant response rating [7] | Barnyardgrass plant response rating [8] | Wheat plant response rating [9] | Foxtail, Giant plant response rating [10] | Crabgrass, Large plant response rating [11] | Corn plant response rating [12] | Velvetleaf plant response rating [13] | Barnyardgrass plant response rating [14] | Pigweed plant response rating [15] | Morningglory plant response rating [16]
CCc1cc(C(=O)NC2CC2)nn1Cc1cccc(OC(F)(F)F)c1 [Compound 26] | 40 | 90 | 100 | 100 | 100 | 70 | 90 | 80 | 50 | 100 | 100 | 40 | 100 | 70 | 100 | 100
O=C(NCC(F)(F)F)c1cc(C2CC2)n(Cc2cccc(OC(F)(F)F)c2)n1 [Compound 36] | 0 | 30 | 60 | 20 | 90 | 20 | 0 | 0 | 0 | 30 | 20 | 0 | 0 | 20 | 30 | 90
O=C(NC1CC1)c1cc(C2CC2)n(Cc2cccc(OC(F)(F)F)c2)n1 [Compound 37] | 0 | 20 | 70 | 30 | 100 | 30 | 0 | 0 | 20 | 10 | 40 | 0 | 0 | 10 | 20 | 80
CCCNC(=O)c1cc(C2CC2)n(Cc2cccc(OC(F)(F)F)c2)n1 [Compound 38] | 0 | 10 | 50 | 0 | 40 | 30 | 0 | 0 | 0 | 10 | 20 | 0 | 0 | 10 | 0 | 100
CCNC(=O)c1cc(C2CC2)n(Cc2cccc(OC(F)(F)F)c2)n1 [Compound 39] | 0 | 10 | 10 | 0 | 40 | 10 | 0 | 0 | 0 | 10 | 10 | 0 | 0 | 10 | 0 | 60
